According to ChEMBL document CHEMBL1155774, “Pharmacokinetics, safety, and hydrolysis of oral pyrroloquinazolinediamines administered in single and multiple doses in rats” (Antimicrob Agents Chemother, 2007):

Assays:
Rattus norvegicus [1] = test: Elimination half life in intragastrically dosed Sprague-Dawley rat assessed as pyrroloquinazolinediamine level at 47.6 umol/kg administered daily for 3 days measured on day 3; assay type: ADME, organism-based; conditions: in vivo, po, 72 h
Rattus norvegicus [2] = test: Elimination half life in intragastrically dosed Sprague-Dawley rat assessed as monoacetamide pyrroloquinazolinediamine level at 95 umol/kg administered as single dose; assay type: ADME, organism-based; conditions: in vivo, po
Rattus norvegicus [3] = test: Anorexic toxicity in intragastrically dosed Sprague-Dawley rat assessed as ratio of body weight change to day of weight change after 14 days; assay type: organism-based; conditions: in vivo, po, 336 h
Rattus norvegicus [4] = test: Anorexic toxicity in intragastrically dosed Sprague-Dawley rat assessed as ratio of body weight change to day of weight change at 2340 umol/kg administered as single dose after 14 days; assay type: organism-based; conditions: in vivo, po, 336 h
Rattus norvegicus [5] = test: Anorexic toxicity in intragastrically dosed Sprague-Dawley rat assessed as ratio of body weight change to day of weight change at 23.8 umol/kg administered daily for 3 days measured after 14 days; assay type: organism-based; conditions: in vivo, po, 336 h
Rattus norvegicus [6] = test: Cmax in intragastrically dosed Sprague-Dawley rat assessed as pyrroloquinazolinediamine level at 47.6 umol/kg administered daily for 3 days measured on day 3; assay type: ADME, organism-based; parameters: dose 47.6 umol/kg, route intragastric; conditions: in vivo, po, 72 h
Rattus norvegicus [7] = test: Anorexic toxicity in intragastrically dosed Sprague-Dawley rat assessed as ratio of body weight change to day of weight change at 11.9 umol/kg administered daily for 3 days measured after 14 days; assay type: organism-based; conditions: in vivo, po, 336 h
Rattus norvegicus [8] = test: Tmax in intragastrically dosed Sprague-Dawley rat assessed as pyrroloquinazolinediamine level at 47.6 umol/kg administered daily for 3 days measured on day 1; assay type: ADME, organism-based; conditions: in vivo, po, 72 h
Rattus norvegicus [9] = test: AUC in intragastrically dosed Sprague-Dawley rat assessed as bisacetamide pyrroloquinazolinediamine level at 95 umol/kg administered as single dose; assay type: ADME, organism-based, Plasma; conditions: in vivo, po
Rattus norvegicus [10] = test: Elimination half life in intragastrically dosed Sprague-Dawley rat assessed as pyrroloquinazolinediamine level at 47.6 umol/kg administered daily for 3 days measured on day 1; assay type: ADME, organism-based; conditions: in vivo, po, 72 h
Rattus norvegicus [11] = test: Elimination half life in intragastrically dosed Sprague-Dawley rat assessed as pyrroloquinazolinediamine level at 95 umol/kg administered as single dose; assay type: ADME, organism-based; conditions: in vivo, po
Rattus norvegicus [12] = test: Bioavailability in intragastrically dosed Sprague-Dawley rat assessed as pyrroloquinazolinediamine level at 95 umol/kg administered as single dose; assay type: ADME, organism-based; conditions: in vivo, po
Rattus norvegicus [13] = test: Anorexic toxicity in intragastrically dosed Sprague-Dawley rat assessed as ratio of body weight change to day of weight change at 1560 umol/kg administered as single dose after 14 days; assay type: organism-based; conditions: in vivo, po, 336 h
[14] = Toxicity in intragastrically dosed Sprague-Dawley rat assessed as maximum tolerated dose; assay type: organism-based; conditions: in vivo, po
Rattus norvegicus [15] = test: Tmax in intragastrically dosed Sprague-Dawley rat assessed as pyrroloquinazolinediamine level at 95 umol/kg administered as single dose; assay type: ADME, organism-based; conditions: in vivo, po
Rattus norvegicus [16] = test: Cmax in intragastrically dosed Sprague-Dawley rat assessed as pyrroloquinazolinediamine level at 95 umol/kg administered as single dose; assay type: ADME, organism-based; parameters: dose 95 umol/kg, route intragastric; conditions: in vivo, po
Rattus norvegicus [17] = test: Bioavailability in intragastrically dosed Sprague-Dawley rat assessed as pyrroloquinazolinediamine level at 47.6 umol/kg administered daily for 3 days measured on day 1; assay type: ADME, organism-based; conditions: in vivo, po, 72 h
Plasma = test: Metabolic stability in Sprague-Dawley rat plasma assessed as formation of pyrroloquinazolinediamine after 30 mins; assay type: ADME, cell-free; conditions: 0.5 h
Rattus norvegicus [18] = test: AUC (0 to infinity) in intragastrically dosed Sprague-Dawley rat assessed as pyrroloquinazolinediamine level at 47.6 umol/kg administered daily for 3 days measured on day 1; assay type: ADME, organism-based, Plasma; parameters: dose 47.6 umol/kg, time infinity, route intragastric; conditions: in vivo, po, 72 h
Rattus norvegicus [19] = test: Toxicity in intragastrically dosed Sprague-Dawley rat at 2340 umol/kg; assay type: organism-based; conditions: in vivo, po
Rattus norvegicus [20] = test: Tmax in intragastrically dosed Sprague-Dawley rat assessed as pyrroloquinazolinediamine level at 47.6 umol/kg administered daily for 3 days measured on day 3; assay type: ADME, organism-based; conditions: in vivo, po, 72 h
Rattus norvegicus [21] = test: Anorexic toxicity in intragastrically dosed Sprague-Dawley rat assessed as ratio of body weight change to day of weight change at 95 umol/kg administered daily for 3 days measured after 14 days; assay type: organism-based; conditions: in vivo, po, 336 h
Rattus norvegicus [22] = test: Anorexic toxicity in intragastrically dosed Sprague-Dawley rat assessed as ratio of body weight change to day of weight change at 47.6 umol/kg administered daily for 3 days measured after 14 days; assay type: organism-based; conditions: in vivo, po, 336 h
Rattus norvegicus [23] = test: Metabolic stability in intragastrically dosed Sprague-Dawley rat assessed as formation of pyrroloquinazolinediamine; assay type: ADME, organism-based; conditions: in vivo, po
Rattus norvegicus [24] = test: Anorexic toxicity in intragastrically dosed Sprague-Dawley rat assessed as ratio of body weight change to day of weight change at 195 umol/kg administered as single dose after 14 days; assay type: organism-based; conditions: in vivo, po, 336 h
Rattus norvegicus [25] = test: AUC (0 to infinity) in intragastrically dosed Sprague-Dawley rat assessed as pyrroloquinazolinediamine level at 47.6 umol/kg administered daily for 3 days measured on day 3; assay type: ADME, organism-based, Plasma; parameters: dose 47.6 umol/kg, time infinity, route intragastric; conditions: in vivo, po, 72 h
Rattus norvegicus [26] = test: Elimination half life in intragastrically dosed Sprague-Dawley rat assessed as bisacetamide pyrroloquinazolinediamine level at 95 umol/kg administered as single dose; assay type: ADME, organism-based; conditions: in vivo, po
Rattus norvegicus [27] = test: Anorexic toxicity in intragastrically dosed Sprague-Dawley rat assessed as ratio of body weight change to day of weight change at 190 umol/kg administered daily for 3 days measured after 14 days; assay type: organism-based; conditions: in vivo, po, 336 h
Rattus norvegicus [28] = test: Anorexic toxicity in intragastrically dosed Sprague-Dawley rat assessed as ratio of body weight change to day of weight change at 780 umol/kg administered as single dose after 14 days; assay type: organism-based; conditions: in vivo, po, 336 h
Rattus norvegicus [29] = test: Cmax in intragastrically dosed Sprague-Dawley rat assessed as pyrroloquinazolinediamine level at 47.6 umol/kg administered daily for 3 days measured on day 1; assay type: ADME, organism-based; parameters: dose 47.6 umol/kg, route intragastric; conditions: in vivo, po, 72 h
Rattus norvegicus [30] = test: Total AUC in intragastrically dosed Sprague-Dawley rat assessed as pyrroloquinazolinediamine level at 47.6 umol/kg administered daily for 3 days measured on day 3; assay type: ADME, organism-based; parameters: dose 47.6 umol/kg, route intragastric, time AUCmax; conditions: in vivo, po, 72 h
Rattus norvegicus [31] = test: AUC in intragastrically dosed Sprague-Dawley rat assessed as monoacetamide pyrroloquinazolinediamine level at 95 umol/kg administered as single dose; assay type: ADME, organism-based, Plasma; conditions: in vivo, po
Rattus norvegicus [32] = test: Bioavailability in intragastrically dosed Sprague-Dawley rat assessed as pyrroloquinazolinediamine level at 47.6 umol/kg administered daily for 3 days measured on day 3; assay type: ADME, organism-based; conditions: in vivo, po, 72 h
Rattus norvegicus [33] = test: Anorexic toxicity in intragastrically dosed Sprague-Dawley rat assessed as ratio of body weight change to day of weight change at 1170 umol/kg administered as single dose after 14 days; assay type: organism-based; conditions: in vivo, po, 336 h
Rattus norvegicus [34] = test: AUC (0 to infinity) in intragastrically dosed Sprague-Dawley rat assessed as pyrroloquinazolinediamine level at 95 umol/kg administered as single dose; assay type: ADME, organism-based, Plasma; parameters: dose 95 umol/kg, time infinity, route intragastric; conditions: in vivo, po
Rattus norvegicus [35] = test: Toxicity in intragastrically dosed Sprague-Dawley rat assessed as mortality at 2340 umol/kg administered as single dose after 14 days; assay type: organism-based; conditions: in vivo, po, 336 h
[36] = Toxicity in intragastrically dosed Sprague-Dawley rat; assay type: organism-based; conditions: in vivo, po

| SMILES | t1/2 (Rattus norvegicus [1]) [h] | ID50 (Rattus norvegicus [3]) [µmol/kg] | Ratio (Rattus norvegicus [5]) | Cmax (Rattus norvegicus [6]) [µg/mL] | Ratio (Rattus norvegicus [7]) | Tmax (Rattus norvegicus [8]) [h] | t1/2 (Rattus norvegicus [10]) [h] | t1/2 (Rattus norvegicus [11]) [h] | F (Rattus norvegicus [12]) [%] | MTD [14] [µmol/kg] | Tmax (Rattus norvegicus [15]) [h] | Cmax (Rattus norvegicus [16]) [µg/mL] | F (Rattus norvegicus [17]) [%] | AUC (Rattus norvegicus [18]) [µg·h/mL] | Tmax (Rattus norvegicus [20]) [h] | Ratio (Rattus norvegicus [21]) | Ratio (Rattus norvegicus [22]) | Ratio (Rattus norvegicus [24]) | AUC (Rattus norvegicus [25]) [µg·h/mL] | Ratio (Rattus norvegicus [28]) | also measured |
| --- | --- | --- | --- | --- | --- | --- | --- | --- | --- | --- | --- | --- | --- | --- | --- | --- | --- | --- | --- | --- | --- |
| CC(=O)N(C(C)=O)c1nc(N(C(C)=O)C(C)=O)c2c(ccc3c2ccn3Cc2ccccc2C(F)(F)F)n1 | 17.66 | 140.43 | 2.61 | 0.03084 | 2.46 | 7 | 12.86 | 13.2 | 11.45 | 2340 | 5.33 | 0.0605 | 16.49 | 0.7059 | 5.67 | 1.18 | 2.06 | 2.55 | 1.2501 | 2.47 | t1/2 (Rattus norvegicus [2]): 13.16 h; Ratio (Rattus norvegicus [4]): 1.03; AUC (Rattus norvegicus [9]): 0.0249 µg·h/mL; Ratio (Rattus norvegicus [13]): 2.08; Activity (Plasma): 49%; Activity (Rattus norvegicus [19]): Non-toxic; Activity (Rattus norvegicus [23]): 84%; t1/2 (Rattus norvegicus [26]): 12.64 h; Ratio (Rattus norvegicus [27]): -0.89; Cmax (Rattus norvegicus [29]): 0.03123 µg/mL; AUC (Rattus norvegicus [30]): 1.9035 µg·h/mL; AUC (Rattus norvegicus [31]): 0.1765 µg·h/mL; F (Rattus norvegicus [32]): 26.96%; Ratio (Rattus norvegicus [33]): 2.76; AUC (Rattus norvegicus [34]): 1.0473 µg·h/mL |
| CCOC(=O)Nc1nc(NC(=O)OCC)c2c(ccc3c2ccn3Cc2ccccc2C(F)(F)F)n1 | 16.93 | 60.65 | 1.88 | 0.06336 | 2.42 | 3 | 13.29 | 13.59 | 14.86 | 1170 | 3.83 | 0.1087 | 20.45 | 0.8755 | 3.33 | -0.65 | 0.71 | 2.49 | 1.5296 | 2.21 | Activity (Rattus norvegicus [35]): Toxic; Cmax (Rattus norvegicus [29]): 0.05946 µg/mL; AUC (Rattus norvegicus [30]): 2.8561 µg·h/mL; LD50 [36]: 1570 µmol/kg; F (Rattus norvegicus [32]): 31.06%; Ratio (Rattus norvegicus [33]): 0.84; AUC (Rattus norvegicus [34]): 1.3814 µg·h/mL |
